The results in this text go back to PMC9088798, “An Approach to Derive Functional Peptide Inhibitors of Transcription Factor Activity” (JACS Au, 2022).

The target in one experiment is T1, cJun/TRE DNA interaction (Homo sapiens, UniProt P05412).
T1 construct: The human cJun bZIP domain spans from Arg252 to Leu308; His-SUMO (N, cleaved yes); AS cap (two residues Ala-Ser) (N); GAP cap (three residues Gly-Ala-Pro) (C); made in house; host or cells: E. coli (pET21-His-SUMO plasmid)
The experiment is described as follows: CD TRE DNA peak shift, antagonism of cJun/TRE DNA interaction. Type of experiment: biochemical. As to conditions: cJun 20 μM, TRE DNA 5 μM, DNA peak ~281 nm, Hill equation; three independent experiments, one SD; pH 7.4. As for the experimental part: The binding of cJun to TRE DNA can be observed by monitoring a DNA absorbance peak in the CD spectrum centered at ∼281 nm.[44] […] The addition of cJun (20 μM) to TRE DNA (5 μM) decreases this DNA peak by 55% as the cJun engages its target TRE site and alters the DNA structure (Figure 6A). Subsequent titration of HingeW into this bound cJun/TRE DNA mixture reverses the peak shift, with the peak increasing as DNA is released.
Figure 6 HingeW antagonizes cJun/TRE DNA interaction more effectively than A-FosW. (A) CD spectra showing a shift in the TRE DNA peak at ∼281 nm upon addition of cJun, which is reversed by the titration of HingeW into the sample, as HingeW sequesters the cJun in a nonfunctional heterodimer. […] EMSA showing the (C) unbound TRE DNA band shift upon addition of cJun and the subsequent restoration of the unbound DNA band intensity upon titration of either (D) HingeW or (E) A-FosW. (F). For both CD and EMSA, data was averaged from three independent experiments and the plotted error bars indicate one standard deviation. […]
µM) alongside ampicillin, kanamycin and chloramphenicol to maintain the required plasmids, and IPTG (1 mM) to induce protein expression. The library transformants were […]
(§1) increased to the optimum 4 µM in subsequent passages. […] This allows the occurrence of library members to be monitored as winner sequences are selected for. […]

Experiment [1] has as its system cJun bZIP / TRE sites in TRE-mDHFR gene. The experiment is described as follows: TBS liquid culture growth competition HingeW vs A-FosW. As to conditions: equal numbers of cells with A-FosW or HingeW, selective M9 media, after three passages, DNA sequencing. Format: cell-based, human cJun, expressed in E. coli. As for the experimental part:
During the TBS library screening process, E. coli were transformed with the pooled DNA plasmid library such that each cell expressed a given member. Cells were plated onto M9 selective media and incubated until colonies expressing TBS active library members had formed. These colonies were pooled, and repeated liquid culture passages were undertaken under selective conditions to compete for library members against each other, enriching for the most TBS active sequences. At each stage of the assay, DNA sequencing was used to monitor the presence of TBS active sequences in the culture and inform on which residues were being selected at each position until one discrete DNA sequence was detected in the culture, referred to as HingeW (Figure 4). The residues selected in the winning HingeW peptide were universally found to be either acidic (D/E) or hydrophobic (V). Six of nine residues selected deviated from the parental A-FosW sequence with both V (E-to-V at e4 and c4, Q-to-V at f4) and E (L-to-E at a4, Q-to-E at e5, A-to-E at f5) newly selected in three positions. […]
as §1

T1 sequence (P05412 252-308): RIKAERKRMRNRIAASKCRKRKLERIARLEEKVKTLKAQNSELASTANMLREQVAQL

Take “LEQRAEELARENEELEKEAEELEQELDELQAEIEQLEERNYALRKEIEDLQKQLEKL [A-FosW, N-terminal AS and C-terminal GAP caps, 6xHis-tagged]”: on cJun/TRE DNA interaction, the IC50 is 16 ± 0.4 µM. In addition, the “outcome of direct competition in liquid culture” value in experiment [1] is given as “outcompeted”.

Usually IC50 stands for the concentration needed to halve the response being measured.
